The values below come from patent US11407744B2, “Compound and pharmaceutical composition comprising same” (AUTOPHAGYSCIENCES INC., priority 2018, dated 2022).

The first experiment relates to LC3-II production in Hep3B cells. As to the kind of experiment: Autophagy activation: degree of LC3-II production in Hep3B cells (Western blot band density). It is filed as cell-based, human. The conditions noted are these: 12 hours. The protocol: The degree of autophagy activation of each compound was evaluated by measuring the degree of LC3-II production in Hep3B cells.
Specifically, Hep3B human hepatocytes were cultured in DMEM medium at 37° C. under 5% CO2 atmosphere. The respective cells were dispensed into 6-well plates at a density of 5×10^5 cells/well. These cells were treated with DMSO, the compound prepared in Examples described above, and the compound of Comparative Example, respectively, and then treated in DMEM medium at 37° C. under 5% CO2 atmosphere for 12 hours to induce autophagy. Subsequently, Hep3B cells were lysed with an extraction buffer containing protease inhibitor cocktail (PBS solution containing 0.5% Triton X-100, 1 mM Na3VO4, etc.), and then fragmentation of DNA was performed by sonication. The amount of protein was measured with bovine serum albumin as a protein standard using SMART™ BCA Protein Assay kit from iNtRON Biotechnology. After electrophoresis of 10˜50 μg of total cell protein in 8˜12% (w/v) polyacrylamide gel containing 0.1% SDS, the proteins present in a gel were transferred to PVDF membrane by an electroblotting technique. Then, in order to block non-specific binding, the PVDF membrane was placed in a TBS-tween (tris-buffered saline-tween, Sigma Co.) solution containing 5% non-fat dry milk and reacted at room temperature for 1 hour. The filter was placed in a TBS-tween solution containing a specific antibody against LC3 protein (Cell Signaling), allowed to stand at 4° C. for 12 hours, and then labeled with a secondary antibody labeled with HRP (Horseradish Peroxidase, Sigma Co., Cat No. P0889). Then, bands were measured using ECL (Enhanced Chemiluminescence, Thermo Scientific, Cat No. 34080).
The induction of autophagy can be confirmed by an increase in specific LC3-II molecules. LC3 precursors are usually scattered in the cytoplasm, proteolytically cleaved, and present in the form of LC3-I. When autophagy is activated, the C-terminal glycine is modified to form LC3-II, which migrates to autophagosome and is distributed in puncta form.
The amount of LC3-II increased by the compound treatment was quantified by measuring the band density, and then compared with the amount of LC3-II increased by the treatment of the compound of Comparative Example, and the comparison values are shown in Table 1.
On the technique in general: A western blot detects proteins with antibodies after separation by electrophoresis.
As for `COc1ccc(-c2ccc(C(=O)NC(C)C)s2)cc1OC` [Comparative Example, 5-(3,4-dimethoxyphenyl)-N-isopropylthiophene-2-carboxamide, reference compound], the “increase in LC3-II (induction of autophagy), in words” value was “Hep3B cells induce autophagy”.

The same experiment, now with this note: amount of LC3-II increased by compound treatment relative to that of the Comparative Example (=1), 12 hours.
`COc1ccc(-c2ccc(C(=O)NC(C)C)s2)cc1OC` [Comparative Example, 5-(3,4-dimethoxyphenyl)-N-isopropylthiophene-2-carboxamide, reference compound] gave an Autophagy-inducing capacity of 1.00. Same read-out and setting: with `COc1cc(-c2ccc(C(=O)NC(C)C)s2)ccc1O` [Example 1, 5-(4-hydroxy-3-methoxyphenyl)-N-isopropylthiophene-2-carboxamide] the figure was 1.48; with `COc1ccc(-c2ccc(C(=O)NC(C)C)s2)cc1O` [Example 2, 5-(3-hydroxy-4-methoxyphenyl)-N-isopropylthiophene-2-carboxamide], 1.38; with `CC(C)NC(=O)c1ccc(-c2cccc(O)c2)s1` [Example 4, 5-(3-hydroxyphenyl)-N-isopropylthiophene-2-carboxamide], 1.16. On the same count and under the same terms, as for `CC(C)NC(=O)c1ccc(-c2ccc(O)cc2)s1` [Example 5, 5-(4-hydroxyphenyl)-N-isopropylthiophene-2-carboxamide], the figure is 1.80; as for `CC(C)NC(=O)c1ccc(-c2cccnc2)s1` [Example 7, N-isopropyl-5-(pyridin-3-yl)thiophene-2-carboxamide], 1.24; as for `CC(C)NC(=O)c1ccc(-c2ccc3[nH]ccc3c2)s1` [Example 11, 5-(1H-indol-5-yl)-N-isopropylthiophene-2-carboxamide], 2.13. In the case of `COc1ccc(-c2ccc(C(=O)NC(C)C)s2)c(OC)n1` [Example 12, 5-(2,6-dimethoxypyridin-3-yl)-N-isopropylthiophene-2-carboxamide], the Autophagy-inducing capacity is reported as 1.19. `COc1cc(-c2ccc(C(=O)NC(C)C)s2)cnc1N` [Example 14, 5-(6-amino-5-methoxypyridin-3-yl)-N-isopropylthiophene-2-carboxamide] returned an Autophagy-inducing capacity of 1.13. On to `CC(C)NC(=O)c1ccc(-c2cncc3ccccc23)s1` [Example 15, N-isopropyl-5-(isoquinolin-4-yl)thiophene-2-carboxamide], for which the Autophagy-inducing capacity was 1.50. In turn, `CC(C)NC(=O)c1ccc(-c2cnc3ccccc3c2)s1` [Example 17, N-isopropyl-5-(quinolin-3-yl)thiophene-2-carboxamide] had an Autophagy-inducing capacity of 1.99. The same measure, in the same setting: with `CC(C)NC(=O)c1ccc(-c2cccc(N)c2)s1` [Example 18, 5-(3-aminophenyl)-N-isopropylthiophene-2-carboxamide] the figure was 1.13. On the same count and under the same terms, with `CC(C)NC(=O)c1ccc(-c2ccc(F)c(F)c2)s1` [Example 27, 5-(3,4-difluorophenyl)-N-isopropylthiophene-2-carboxamide] the figure was 1.01; with `Cc1cc(C)cc(-c2ccc(C(=O)NC(C)C)s2)c1` [Example 28, 5-(3,5-dimethylphenyl)-N-isopropylthiophene-2-carboxamide], 1.60. Compound `Cc1cccc(-c2ccc(C(=O)NC(C)C)s2)c1` [Example 30, N-isopropyl-5-m-tolylthiophene-2-carboxamide] yielded an Autophagy-inducing capacity of 1.02. As to `Cc1ccc(-c2ccc(C(=O)NC(C)C)s2)c(C)c1` [Example 31, 5-(2,4-dimethylphenyl)-N-isopropylthiophene-2-carboxamide], the Autophagy-inducing capacity was found to be 1.49.

Regarding `Cc1cc(C)cc(-c2ccc(C(=O)Nc3ccccc3)s2)c1` [Example 48, 5-(3,5-dimethylphenyl)-N-phenylthiophene-2-carboxamide], the Autophagy-inducing capacity was 1.46.

For the compound `O=C(Nc1ccccc1)c1ccc(-c2cccnc2)s1` [Example 49, N-phenyl-5-(pyridin-3-yl)thiophene-2-carboxamide], the Autophagy-inducing capacity is 1.51. In turn, `O=C(Nc1cccnc1)c1ccc(-c2cccnc2)o1` [Example 58, N,5-di(pyridin-3-yl)furan-2-carboxamide] came in with an Autophagy-inducing capacity of 1.10.

Consider `CC(C)NC(=O)c1ccc(-c2cncc3ccccc23)o1` [Example 65, N-isopropyl-5-(isoquinolin-4-yl)furan-2-carboxamide], for which the Autophagy-inducing capacity was determined as 1.66.

`CC(C)OC(=O)c1ccc(-c2cccnc2)s1` [Example 72, isopropyl 5-(pyridin-3-yl)thiophene-2-carboxylate] displayed an Autophagy-inducing capacity of 1.08. With `Cc1cc(C)cc(-c2ccc(C(=O)NC(C)C)o2)c1` [Example 85, 5-(3,5-dimethylphenyl)-N-isopropylfuran-2-carboxamide], the Autophagy-inducing capacity came to 1.09. `CCOC(=O)c1ccc(-c2cnc3ccccc3c2)o1` [Example 88, ethyl 5-(quinolin-3-yl)furan-2-carboxylate] had an Autophagy-inducing capacity of 1.02. Still for that read-out and setting: with `CCOC(=O)c1ccc(-c2ccc(C#N)cc2)o1` [Example 89, ethyl 5-(4-cyanophenyl)furan-2-carboxylate] the figure was 1.64; with `O=C(Nc1cccnc1)c1ccc(-c2cccc(O)c2)o1` [Example 91, 5-(3-hydroxyphenyl)-N-(pyridin-3-yl)furan-2-carboxamide], 1.33. On the same count and under the same terms, with `CCNC(=O)c1cccc(-c2ccc(C(=O)NC(C)C)o2)c1` [Example 92, 5-(3-(ethylcarbamoyl)phenyl)-N-isopropylfuran-2-carboxamide] the figure was 1.41.

`CCNC(=O)c1ccc(-c2ccc(C(=O)NC(C)C)o2)cc1` [Example 93, 5-(4-(ethylcarbamoyl)phenyl)-N-isopropylfuran-2-carboxamide]: the Autophagy-inducing capacity came out at 1.19. In turn, `CC(C)NC(=O)c1ccc(-c2ccc(C(=O)NC(C)C)o2)cc1` [Example 94, N-isopropyl-5-(4-(isopropylcarbamoyl)phenyl)furan-2-carboxamide] showed an Autophagy-inducing capacity of 1.17.
